# Patent publication US20260092061A1, “COMPOUNDS FOR TARGETED PROTEIN DEGRADATION” (Amphista Therapeutics Limited, priority 2022, published 2026)
# Read-outs that look alike come from different tables or passages of the source.
# Biological target: T1, BRD9 (Homo sapiens, UniProt Q9H8M2)
# T1 sequence (Q9H8M2 1-597): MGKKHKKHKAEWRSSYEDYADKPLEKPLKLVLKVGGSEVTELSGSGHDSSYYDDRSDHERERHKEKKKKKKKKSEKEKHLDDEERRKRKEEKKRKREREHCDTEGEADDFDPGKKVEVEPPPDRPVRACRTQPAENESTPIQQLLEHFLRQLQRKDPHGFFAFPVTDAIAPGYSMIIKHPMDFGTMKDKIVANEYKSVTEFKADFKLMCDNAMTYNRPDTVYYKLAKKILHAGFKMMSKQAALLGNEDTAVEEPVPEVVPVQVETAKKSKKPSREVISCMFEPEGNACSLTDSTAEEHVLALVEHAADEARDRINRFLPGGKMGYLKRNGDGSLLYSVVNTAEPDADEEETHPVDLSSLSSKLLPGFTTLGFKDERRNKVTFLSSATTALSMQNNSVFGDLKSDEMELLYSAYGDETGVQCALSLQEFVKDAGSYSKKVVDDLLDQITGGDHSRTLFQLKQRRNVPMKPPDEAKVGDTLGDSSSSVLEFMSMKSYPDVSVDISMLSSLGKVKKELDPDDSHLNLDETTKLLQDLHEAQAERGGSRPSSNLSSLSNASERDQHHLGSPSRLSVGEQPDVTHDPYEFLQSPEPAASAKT
# Assay: Degradation of BRD9 (IF), immunofluorescence in MV4-11 cells, 24 hours (Assay Protocol 2)
# Assay type: cell-based
# Set-up: A suspension of MV4-11 cells (ATCC CRL-9591) was prepared; host or cells: MV4-11
# Details: BRD9 degradation; for DC50: read-out: DC50
# Procedure: Assay Protocol 2—Degradation of BRD9 (IF)
# A suspension of MV4-11 cells (ATCC CRL-9591) was prepared in phenol red-free assay media (IMDM Thermo Scientific 21056023+10% FBS ATCC 302025) and cells were seeded at 20,000 cells per well (45 μL) in sterile black poly-d-lysine coated 384 well plates (Greiner 781948). Compounds were prepared at 1000× final concentration in DMSO, diluted 1:100 in assay media, and 5 μL compound was added to each well of the cell plate. Cells were incubated for 24 hours at 37° C. with 5% CO2. All the following incubations for immunofluorescence staining were at room temperature. 15 μL of 16% PFA was added to each well (3.7% final concentration) and the cells were fixed for 15 min then washed twice with DPBS. Cells were permeabilised with 0.1% Triton X-100 for 10 min, Triton X-100 was removed, then blocked with 1% BSA in DPBS for 1 hour. Cells were stained with 25 μL anti-BRD9 E4Q3F antibody (CST 48306) diluted 1:25600 in 1% BSA in DPBS for 2-3 hours. Wels were washed twice with DPBS then incubated with 25 μL of 1% BSA containing a 1:1000 dilution of Anti-rabbit Alexa Fluor™ 647 secondary antibody (Thero Scientific A21244) and 1 μg/mL Hoechst nuclear counter stain (Abcam ab228551) for 1 hour. Wells were washed twice with DPBS prior to imaging on a Perkin Elmer Operetta CLS with 10× air lens. Images were processed using Harmony High-Content Imaging and Analysis Software (Perkin Elmer) and the mean contrast ratio of Alexa Fluor™ 647 in central nuclei was used to quantify BRD9 protein levels. Data was further analysed using Dotmatics software and % BRD9 remaining was calculated by normalisation to average data from high and low control wells (cells treated with DMSO or 100 nM CFT-8634 respectively).
# [1] = MV4-11, Assay protocol 2, read-out: Dmax
Structure (SMILES),DC50 (Assay protocol 2) [nM],Dmax [1] [%],Dmax (Assay protocol 2)
"COc1cc(-c2cn(C)c(=O)c3[nH]ncc23)cc(OC)c1CN1CCN(Cc2cccc3c2CCN(C(=O)/C(C#N)=C/c2cccc(Br)n2)C3C)C2(CC2)C1 (mixture of isomers) [Compound B118, (E/Z)-3-(6-bromopyridin-2-yl)-2-(5-((7-(2,6-dimethoxy-4-(6-methyl-7-oxo-6,7-dihydro-1H-pyrazolo[3,4-c]pyridin-4-yl)benzyl)-4,7-diazaspiro[2.5]octan-4-yl)methyl)-1-methyl-1,2,3,4-tetrahydroisoquinoline-2-carbonyl)acrylonitrile]",< 1.25,70 to 75,
"COc1cc(-c2cn(C)c(=O)c(C)c2C)cc(OC)c1CN1CCN(Cc2ccc3c(c2)[C@H](C)N(C(=O)/C(C#N)=C/C(C)(C)CF)CC3)C2(CC2)C1 (single isomer, unassigned) [Compound B201, (E/Z)-2-(7-((7-(2,6-dimethoxy-4-(1,4,5-trimethyl-6-oxo-1,6dihydropyridin-3-yl)benzyl)-4,7-diazaspiro[2.5]octan-4-yl)methyl)-1-methyl-1,2,3,4-tetrahydroisoquinoline-2-carbonyl)-5-fluoro-4,4-dimethylpent-2-enenitrile]",25 to 1000,40 to 70,
"COc1cc(-c2cn(C)c(=O)c(C)c2C)cc(OC)c1CN1CCN(Cc2cccc3c2CCN(C(=O)/C(C#N)=C/c2cccc(Br)n2)C3C)C(C)(C)C1 (mixture of isomers) [Compound B109, (E/Z)-3-(6-bromopyridin-2-yl)-2-(5-((4-(2,6-dimethoxy-4-(1,4,5-trimethyl-6-oxo-1,6-dihydropyridin-3-yl)benzyl)-2,2-dimethylpiperazin-1-yl)methyl)-1-methyl-1,2,3,4-tetrahydroisoquinoline-2-carbonyl)acrylonitrile]",1.25 to 10,> 75,
"COc1cc(-c2cn(C)c(=O)c(C)c2C)cc(OC)c1CN1CCC2(CC1)CN(c1cccc3c1CCN(C(=O)/C(C#N)=C/C(C)(C)C)[C@@H]3C)C2 (mixture of isomers) [Compound C45, (E/Z)-2-(5-(7-(2,6-dimethoxy-4-(1,4,5-trimethyl-6-oxo-1,6-dihydropyridin-3-yl)benzyl)-2,7-diazaspiro[3.5]nonan-2-yl)-1-methyl-1,2,3,4-tetrahydroisoquinoline-2-carbonyl)-4,4-dimethylpent-2-enenitrile]",10 to 25,40 to 70,
"COc1cc(-c2cn(C)c(=O)c(C)c2C)cc(OC)c1CN1CCN(Cc2cccc3c2CCN(C(=O)/C(C#N)=C/C(C)(C)C)[C@H]3C)[C@@H](C)C1 (single isomer, unassigned) [Compound B197]",25 to 1000,40 to 70,
"COc1cc(-c2cn(C)c(=O)c(C)c2C)cc(OC)c1CN1CCN(Cc2cccc3c2CCN(C(=O)/C(C#N)=C/C2CCOC2)C3C)C2(CC2)C1 (mixture of isomers) [Compound B173, (E/Z)-2-(5-((7-(2,6-dimethoxy-4-(1,4,5-trimethyl-6-oxo-1,6-dihydropyridin-3-yl)benzyl)-4,7-diazaspiro[2.5]octan-4-yl)methyl)-1-methyl-1,2,3,4-tetrahydroisoquinoline-2-carbonyl)-3-(tetrahydrofuran-3-yl)acrylonitril]",< 1.25,,+++ (+++ = ≥75%)
"CC[C@H]1CN(Cc2cccc3c2CCN(C(=O)/C(C#N)=C/C(C)(C)C)C3C)CCN1Cc1c(OC)cc(-c2cn(C)c(=O)c(C)c2C)cc1OC (mixture of isomers) [Compound B135, (E/Z)-2-(5-(((S)-4-(2,6-dimethoxy-4-(1,4,5-trimethyl-6-oxo-1,6-dihydropyridin-3-yl)benzyl)-3-ethylpiperazin-1-yl)methyl)-1-methyl-1,2,3,4-tetrahydroisoquinoline-2-carbonyl)-4,4-dimethylpent-2-enenitrile]",1.25 to 10,> 75,
"COc1cc(-c2cn(C)c(=O)c(C)c2C)cc(OC)c1CN1CCCN(Cc2cccc3c2CCN(C(=O)/C(C#N)=C/C(C)(C)CF)[C@@H]3C)CC1 (single isomer, unassigned) [Compound C19]",1.25 to 10,> 75,
